# Earlier results as cited in patent US20100247649A1, “PHARMACEUTICAL FORMULATIONS COMPRISING TELMISARTAN AND HYDROCHLOROTHIAZIDE” (DR. REDDY'S LABORATORIES LTD., priority 2007, published 2010).
Stability in alkaline conditions (alkaline conditions),Aqueous solubility in the physiological pH range of the gastrointestinal tract (between pH 1 and 7),Solubility in hydrochloric acid (hydrochloric acid),Solubility in the pH range of 3 to 9 (pH range of 3 to 9),Solubility in strong acids (strong acids (except hydrochloric acid)),Solubility in strong bases (strong bases),Solubility in water (water),SMILES
degrades,,,,,,,"NS(=O)(=O)c1cc2c(cc1Cl)NCNS2(=O)=O [Hydrochlorothiazide, 6-chloro-3,4-dihydro-2H-1,2,4-benzothiadiazine-7-sulfonamide 1,1-dioxide]"
,very poor,insoluble,practically insoluble,sparingly soluble,soluble,practically insoluble,"CCCc1nc2c(C)cc(-c3nc4ccccc4n3C)cc2n1Cc1ccc(-c2ccccc2C(=O)O)cc1 [Telmisartan, 4′-[(1,4′-dimethyl-2′-propyl[2,6′-bi-1H-benzimidazol]-1′-yl)methyl]-[1,1′-biphenyl]-2-carboxylic acid]"
